Assays:
[1] = tested on: amyloid beta (Aβ); assay: Western blot of Aβ in hippocampal tissues of animal model; type: in vivo, ICR mice; settings: day 19; compared to Aβ1-42 treated group; FIG. 15
Method: (§1) To conduct Western blotting, tissues were homogenized in radioimmunoprecipitation assay buffer (Cell Signaling) to acquire tissue lysates. Tissue protein concentrations were determined using the Bio-Rad protein assay (Bio-Rad, Hercules, CA, USA), and Western blot analysis was conducted using 80-120 μg of protein. Next, the Western blotting samples prepared using the proteins were separated using 12% SDS-PAGE and transferred to a polyvinylidene fluoride membrane (PVDF) (Merck Millipore, Burlington, MA, USA; 0.4 μm). The PVDF was blocked with tris-buffered saline including 5% bovine serum albumin and Tween-20, and incubated with primary antibodies overnight at 4° C. After primary antibody incubation, the samples were incubated with HRP-conjugated secondary antibody (Sigma; 1:5000) for 1 hour at room temperature, and immunodetection was conducted using an enhanced chemiluminescence detection kit (GE Healthcare, Chicago, IL, USA).
(§2) Specifically, hippocampal tissues were acquired on day 19 from the animal models created in Example 7 above (PBS treated group, Aβ1-42 treated group, CBDA treated group, and THCA treated group), and Western blot analysis was conducted on the hippocampal tissues to evaluate the expression levels of APP (Amyloid Precursor Protein), polymeric Aβ, and oligomeric Aβ.

[2] = tested on: BDNF (brain-derived neurotrophic factor); assay: Western blot of BDNF in hippocampal tissues of animal model; type: in vivo, ICR mice; settings: day 19; compared to Aβ1-42 treated group; FIG. 17
Method: as §1
as §2, with “BDNF, p-CREB,” for “APP (Amyloid Precursor Protein), polymeric Aβ,”, “p-TrKB.” for “oligomeric Aβ.”

[3] = tested on: p-TrkB (Tyrosine receptor kinase B); assay: Western blot of p-TrkB in hippocampal tissues of animal model; type: in vivo, ICR mice; settings: day 19; compared to Aβ1-42 treated group; FIG. 17
Method: as §1
as §2, with “BDNF, p-CREB,” for “APP (Amyloid Precursor Protein), polymeric Aβ,”, “p-TrKB.” for “oligomeric Aβ.”

[4] = tested on: phosphorylated tau (p-Tau); assay: Western blot of Tau/p-Tau in hippocampal tissues of animal model; type: in vivo, ICR mice; settings: day 19; compared to Aβ1-42 treated group; FIG. 16
Method: as §1
as §2, with “Tau” for “APP (Amyloid Precursor Protein), polymeric Aβ,”, “phosphorylated Tau (p-Tau).” for “oligomeric Aβ.”

[5] = tested on: primary neuronal cells; assay: Inhibition of Aβ1-42-induced neuron apoptosis (MTS cell viability); type: cell-based, ICR mice; settings: for cell survival rate level: different concentrations with Aβ1-42 (5 μM), 24 hours, compared to control treated with Aβ1-42 alone, FIG. 2; for neuron apoptosis inhibition efficacy: same concentration of CBDA, CBD, THCA and THC, Memantine as positive control, FIG. 3
Method: Specifically, primary neuronal cells derived from ICR mice were seeded in 96-wells at 5×10^5 cells per well and cultured for 6 days. Afterwards, the six compounds of Example 1 above were treated at different concentrations and Aβ1-42 (5 μM) was treated to induce neuron apoptosis, and the cells were treated together for 24 hours. Afterwards, a MTS solution was added to the medium and incubated for 2 hours. Cytotoxicity (cell viability) was measured using a microplate spectrophotometer (Bio-Tek Power Wave XS, Winooski, VT, USA), and absorbance was measured at 490 nm.
Next, the neuron apoptosis inhibition efficacy for the same concentration of CBDA, CBD, THCA and THC was evaluated using the same method as above. Memantine, known as an Alzheimer's treatment, was used as a positive control group.

[6] = tested on: APP (Amyloid Precursor Protein); assay: Western blotting of APP expression in Aβ1-42-treated primary neuronal cells; type: cell-based, ICR mice; settings: CBDA (6 μM) or THCA (5 μM), with Aβ1-42 (5 μM), 24 hours; FIG. 6
Method: Specifically, primary neuronal cells derived from ICR mice were cultured for 6 days, and then treated with CBDA, THCA, THC, or CBN compounds while treating with Aβ1-42 (5 μM), and treated together for 24 hours. Next, Western blotting was conducted to confirm the expression levels of APP (Amyloid Precursor Protein), polymeric Aβ, and oligomeric AB in the cells.
as §1

[7] = tested on: Alzheimer's animal model (Aβ1-42 treated mice); assay: Object location test (OLT) in Aβ1-42 Alzheimer's animal model; type: in vivo, ICR mice; settings: compared to mice treated with only Aβ1-42; FIG. 14
Method: (§3) Female ICR mice (8 weeks old) used in the experiment were purchased from Coretech (Pyeongtaek, Korea). Mice were housed in the animal care facility of the Korea Institute of Science and Technology (KIST) (temperature 22±2° C., humidity 40-60%, 12-hour light/dark cycle). Mice were housed in an environment with free access to food and water. All animal experiments were conducted in accordance with the protocol approval of the Animal Ethics Committee of our institution.
(§4) Next, to create an animal model, mice were randomly selected and divided into four groups as follows: PBS treated group (PBS+PBS), Aβ1-42 treated group (Aβ1-42 +PBS) (Alzheimer's animal model), CBDA treated group (Δβ1-42+CBDA (6.25 µM, 3 μL/mouse)), and THCA treated group (Δβ1-42+THCA (12.5 μM, 3 μL/mouse)).
(§5) After anesthetizing the isolated mice by intraperitoneal (i.p.) injection of avertin (250 mg/kg), the mice were fixed in a stereotaxic apparatus, and CBDA, THCA, Aβ1-42, or PBS (3 μl/15 min/mouse) were gradually delivered to the hippocampus using a Hamilton syringe (coordinates of bregma: mediolateral (ML)=1.30 mm, anteroposterior (AP)=−2.00 mm, dorsoventral=−2.20 mm).
(§6) First, the Novel Object Recognition Test (NOR) was conducted to examine a natural tendency of the experimental mice to explore novel stimuli. For this purpose, during the habituation session conducted 2 days before the test, the mice were allowed to explore the test environment consisting of an opaque custom-made Plexiglas box (35 cm×45 cm×25 cm) for 10 minutes. The sample object phase was conducted 24 hours later. Two identical white circular cylinders (sample objects) were placed on opposite edges of the test environment, and mice were given access to the objects for 10 minutes. After 4 hours (novel object stage), one of the sample objects in the test environment was replaced with a similarly sized novel object (colored miniature animal), and the mouse was allowed to contact this novel arrangement for 5 minutes. The time when the mouse's nose stayed <1 cm away from the object was considered the time the mouse explored the object, excluding the time when the mouse stood on the object. The identification rate was calculated as the time spent exploring the novel object relative to the time spent exploring the two objects.
Additionally, for the object location test (OLT), it was conducted in the same manner as the novel object recognition test described above, but on the last day of the object location test, one of the two sample objects was moved to a different location and the test was conducted.

[8] = tested on: Alzheimer's animal model (Aβ1-42 treated mice); assay: Novel object recognition test (NOR) in Aβ1-42 Alzheimer's animal model; type: in vivo, ICR mice; settings: compared to mice treated with only Aβ1-42; FIG. 14
Method: as §3, §4, §5, §6

| Structure (SMILES) | expression level of Aβ in hippocampal tissues [1] | expression level of BDNF in hippocampal tissues [2] | expression level of p-TrKB in hippocampal tissues [3] | expression level of p-Tau in hippocampal tissues [4] | phosphorylation level of p-Tau in hippocampal tissues [4] | cell survival rate level [5] | neuron apoptosis inhibition efficacy [5] | expression level of APP [6] | identification rate (OLT) [7] | time investigating the object moved to a different location [7] | identification rate (NOR) [8] | time investigating the novel object [8] |
| --- | --- | --- | --- | --- | --- | --- | --- | --- | --- | --- | --- | --- |
| C=C(C)[C@@H]1CCC(C)=C[C@H]1c1c(O)cc(CCCCC)c(C(=O)O)c1O [CBDA] | significantly reduced | significantly increased | significantly increased | significantly reduced | significantly reduced | significantly increased | better neuron apoptosis inhibition efficacy | significantly reduced | significantly increased | spent more time | significantly increased | spent more time |
| CCCCCc1cc2c(c(O)c1C(=O)O)[C@@H]1C=C(C)CC[C@H]1C(C)(C)O2 [THCA, (6aR, 10aR)-1-Hydroxy-6,6,9-trimethyl-3-pentyl-6a,7,8,10a-tetrahydro-6H-benzo[c]chromene-2-carboxylic acid] | significantly reduced | significantly increased | significantly increased | significantly reduced | significantly reduced | significantly increased | better neuron apoptosis inhibition efficacy | significantly reduced | significantly increased | spent more time | significantly increased | spent more time |
